According to patent US20060216295A1, “Methods of identifying therapeutic targets for the treatment of vulvovaginal atrophy” (Wyeth, priority 2005, published 2006):
Where two headings read alike, the source gives them in different places.

Key:
[1] = tested on: vaginal epithelium; type: in vivo, rat; settings: for whether the compound mimics the action of 17β-estradiol in the vagina: ovariectomized rats treated intravaginally, Example 3; for effect on the rat vaginal epithelium, in words: ovariectomized rats; for histological change of the vaginal epithelial layer compared to vehicle: rats, intravaginal dosing, Example 2
Protocol: FIG. 4 represents H&E stained cross-sections of rat vagina after 5 days of intravaginal treatment with 100 nM betacellulin in 2% carbomer vehicle.
These histologic changes are the hallmark of a vaginal estrogenic response. Tables 2 and 3 detail the studies performed with mersalyl and betacellulin. The body of the table indicates the number of positive histological changes over the number of samples evaluated.
Table 4 includes the studies performed with the PHD/FIH non-specific inhibitor DMOG, whereas Table 5 is the studies performed with 2,4-DPD.
Table 6 includes the studies performed with the FIH specific inhibitor 3,4-dihydroxybenzoate (3,4-DHB), whereas Table 7 outlines the studies performed with N-oxalyl-D-alanine (NODA).

[2] = tested on: Betacellulin; assay: RNA expression analysis (Affymetrix RAE230A/B arrays) of vaginal vault of ovariectomized rats after 17β-estradiol; type: in vivo, rat; settings: Betacellulin mRNA, single dose 20 μg/kg 17β-estradiol subcutaneously
Source text: RNA was harvested from the entire vaginal vault at each time point and was subjected to RNA expression analysis. Five micrograms of total RNA were used to generate biotin labeled cRNA using an oligo T7 primer in a reverse transcription reaction followed by in vitro transcription reaction with biotin labeled UTP and CTP. Ten micrograms of cRNA were fragmented and hybridized to RAE230A and RAE230B arrays (Affymetrix, Santa Clara, Calif.). Hybridized arrays were stained according to manufacturer's protocols on a Fluidics Station 450 and scanned on an Affymetrix scanner 3000. All array images were visually inspected for defects and quality. Signal values were determined using Gene Chip Operating System 1.0 (GCOS, Affymetrix). For each array, all probe sets were normalized to a mean signal intensity value of 100. The default GCOS statistical values were used for all analyses. Signal values and absolute detection calls were imported into Genesis 2.0 (GeneLogic, Gaithersburg, Md.) for analysis.
A gene was considered to be detectible if the mean expression in either the treated or untreated group was 50 signal units and the percentage of samples with a Present (P) call as determined by GCOS default settings was greater than or equal to 25%. A gene was considered to be regulated if the difference between the treated and untreated groups met the following criteria: (1) the gene had to be detected in at least 25% of the samples of at least one of the groups, (2) the fold change between was at least 1.7, and (3) the p-value based on a T-test had to be ≦0.01. Nine hundred fifty-nine qualifiers on the RAE230A array and 707 qualifiers on the RAE230B array met these conditions.
Based on the time course of response and the biological function associated with them, HIF1α and betacellulin were selected as candidate targets for treatment of vulvovaginal atrophy. These proteins were selected for further study because they were regulated by estradiol after 6 hours of treatment and thus can be expected to be at the top of the estrogenic signaling cascade.

[3] = tested on: vaginal epithelium; type: in vivo, rat; settings: intravaginal; 50 nM 17β-estradiol, 10 nM recombinant mouse betacellulin, 1 μM Mersalyl; 2% carbomer vehicle
[4] = tested on: HIF1α transcription; settings: cited from earlier work
[5] = tested on: HIF-regulated transcripts; settings: in vitro; cited from earlier work

With CCOC(=O)c1ccnc(C(=O)OCC)c1 [2,4-DPD, 2,4-pyridinedicarboxylic acid, diethyl ester] the “number of positive histological responses/number of samples evaluated” value ([1]; OVX rat, 2,4-DPD 0.1 μM intravaginal, Study 2) was 0/4, the “number of positive histological responses/number of samples evaluated” value ([1]; OVX rat, 2,4-DPD 1 μM intravaginal, Study 2) was 1/4 and the “number of positive histological responses/number of samples evaluated” value ([1]; OVX rat, 2,4-DPD 10 μM intravaginal, Study 1) was 0/4. The “number of positive histological responses/number of samples evaluated” value ([1]; OVX rat, 2,4-DPD 10 μM intravaginal, Study 2) was 1/3, the “number of positive histological responses/number of samples evaluated” value ([1]; OVX rat, 2,4-DPD 10 μM intravaginal, Study 3) was 1/4 and the “whether the compound mimics the action of 17β-estradiol in the vagina” value (“whether the compound mimics the action” below) [1] was “variable results”.

With O=C(O)c1ccc(O)c(O)c1 [3,4-DHB, 3,4-dihydroxybenzoate] the “number of positive histological responses/number of samples evaluated” value ([1]; OVX rat, 3,4-DHB 10 μM intravaginal, Study 1) was 1/4, the “number of positive histological responses/number of samples evaluated” value ([1]; OVX rat, 3,4-DHB 100 μM intravaginal, Study 1) was 0/4 and the “number of positive histological responses/number of samples evaluated” value ([1]; OVX rat, 3,4-DHB 1 mM intravaginal, Study 1) was 0/4. The “number of positive histological responses/number of samples evaluated” value ([1]; OVX rat, 3,4-DHB 1 mM intravaginal, Study 2) was 0/4, the “number of positive histological responses/number of samples evaluated” value ([1]; OVX rat, 3,4-DHB 1 mM intravaginal, Study 3) was 0/3 and the “number of positive histological responses/number of samples evaluated” value ([1]; OVX rat, 3,4-DHB 10 mM intravaginal, Study 1) was 4/4. For the same molecule, the “number of positive histological responses/number of samples evaluated” value ([1]; OVX rat, 3,4-DHB 10 mM intravaginal, Study 2) was 1/4, the “number of positive histological responses/number of samples evaluated” value ([1]; OVX rat, 3,4-DHB 10 mM intravaginal, Study 3) was 2/3 and the “number of positive histological responses/number of samples evaluated” value ([1]; OVX rat, 3,4-DHB 10 mM intravaginal, Study 4) was 1/3. The “whether the compound mimics the action” value [1] was “variable results”.

In the case of C[C@]12CC[C@@H]3c4ccc(O)cc4CC[C@H]3[C@@H]1CC[C@@H]2O [17β-estradiol], the “Fold Change Over Vehicle” value ([2]; 6 hour) is reported as “+2.9”, the “Fold Change Over Vehicle” value ([2]; 72 hour) is reported as “+2.8” and the “Fold Change Over Vehicle” value ([2]; 120 hour (5 day)) is reported as “+1.6”. For the same molecule, the “histology of rat vagina (H&E stained cross-sections) compared to vehicle, FIG. 1” value (“histology … compared to vehicle, FIG. 1” below) [3] was “positive effect”.

For COC(=O)CNC(=O)C(=O)OC [DMOG, N-(methoxyooxoacetyl)-glycine methyl ester], the “number of positive histological responses/number of samples evaluated” value ([1]; OVX rat, DMOG 1 μM intravaginal, Study 2) was 0/4, the “number of positive histological responses/number of samples evaluated” value ([1]; OVX rat, DMOG 10 μM intravaginal, Study 1) was 3/3 and the “number of positive histological responses/number of samples evaluated” value ([1]; OVX rat, DMOG 10 μM intravaginal, Study 2) was 2/3. The “number of positive histological responses/number of samples evaluated” value ([1]; OVX rat, DMOG 10 μM intravaginal, Study 3) was 2/4, the “number of positive histological responses/number of samples evaluated” value ([1]; OVX rat, DMOG 100 μM intravaginal, Study 1) was 0/3 and the “number of positive histological responses/number of samples evaluated” value ([1]; OVX rat, DMOG 1 mM intravaginal, Study 1) was 0/3. For the same molecule, the “number of positive histological responses/number of samples evaluated” value ([1]; OVX rat, DMOG 1 mM intravaginal, Study 3) was 1/4 and the “whether the compound mimics the action” value [1] was “variable results”.

For COC(CNC(=O)c1ccccc1OCC(=O)O)[CH2][Hg][OH] (centres unmarked) [Mersalyl, mersalyl], the “number of positive histological changes over the number of samples evaluated” value (“number of positive histological changes” for short) ([1]; Mersalyl dose 0.1 μM intravaginal, Study 2) was 2/4, the “number of positive histological changes” value ([1]; Mersalyl dose 0.1 μM intravaginal, Study 3) was 4/4 and the “number of positive histological changes” value ([1]; Mersalyl dose 0.1 μM intravaginal, Study 4) was 4/4. The “number of positive histological changes” value ([1]; Mersalyl dose 1 μM intravaginal, Study 1) was 3/3, the “number of positive histological changes” value ([1]; Mersalyl dose 1 μM intravaginal, Study 2) was 4/4/ and the “number of positive histological changes” value ([1]; Mersalyl dose 1 μM intravaginal, Study 3) was 2/3. The “number of positive histological changes” value ([1]; Mersalyl dose 1 μM intravaginal, Study 4) was 4/4/, the “number of positive histological changes” value ([1]; Mersalyl dose 10 μM intravaginal, Study 1) was 0/3 and the “number of positive histological changes” value ([1]; Mersalyl dose 10 μM intravaginal, Study 2) was 0/4. For the same molecule, the “number of positive histological changes” value ([1]; Mersalyl dose 100 μM intravaginal, Study 1) was 0/3, the “effect on the rat vaginal epithelium, in words” value [1] was “expansion of the vaginal epithelium in a manner similar to treatment with 17β-estradiol” and the “histological change of the vaginal epithelial layer compared to vehicle” value [1] was “clear thickening and differentiation of the vaginal epithelial layer”. For the same molecule, the “histology … compared to vehicle, FIG. 1” value [3] was “positive effect” and the “upregulation of HIF1α transcription” value [4] was “upregulate HIF1α transcription”.

For C[C@@H](NC(=O)C(=O)O)C(=O)O [NODA, N-oxalyl-D-alanine], the “number of positive histological responses/number of samples evaluated” value ([1]; OVX rat, NODA 10 μM intravaginal, Study 1) was 1/4, the “number of positive histological responses/number of samples evaluated” value ([1]; OVX rat, NODA 10 μM intravaginal, Study 2) was 1/3 and the “number of positive histological responses/number of samples evaluated” value ([1]; OVX rat, NODA 10 μM intravaginal, Study 3) was 0/3. The “number of positive histological responses/number of samples evaluated” value ([1]; OVX rat, NODA 100 μM intravaginal, Study 1) was 0/4, the “number of positive histological responses/number of samples evaluated” value ([1]; OVX rat, NODA 100 μM intravaginal, Study 2) was 0/3 and the “number of positive histological responses/number of samples evaluated” value ([1]; OVX rat, NODA 100 μM intravaginal, Study 3) was 0/3. For the same molecule, the “number of positive histological responses/number of samples evaluated” value ([1]; OVX rat, NODA 1 mM intravaginal, Study 1) was 0/4, the “number of positive histological responses/number of samples evaluated” value ([1]; OVX rat, NODA 1 mM intravaginal, Study 2) was 0/3 and the “number of positive histological responses/number of samples evaluated” value ([1]; OVX rat, NODA 1 mM intravaginal, Study 3) was 1/3. For the same molecule, the “number of positive histological responses/number of samples evaluated” value ([1]; OVX rat, NODA 1 mM intravaginal, Study 4) was 1/4, the “number of positive histological responses/number of samples evaluated” value ([1]; OVX rat, NODA 10 mM intravaginal, Study 1) was 3/4 and the “number of positive histological responses/number of samples evaluated” value ([1]; OVX rat, NODA 10 mM intravaginal, Study 2) was 0/3. For the same molecule, the “number of positive histological responses/number of samples evaluated” value ([1]; OVX rat, NODA 10 mM intravaginal, Study 3) was 1/3, the “number of positive histological responses/number of samples evaluated” value ([1]; OVX rat, NODA 10 mM intravaginal, Study 4) was 0/4 and the “whether the compound mimics the action” value [1] was “variable results”.

For “CODDD: peptide corresponding to amino acids 549-582 of HIF1α (C-terminal oxygen dependent degradation domain), FIG. 3”, the “upregulation of HIF-regulated transcripts” value [5] is given as “capable of upregulating HIF-regulated transcripts in vitro”.

B1: Betacellulin: mouse betacellulin (Asp32-Gln118) generated in E. coli by R&D Systems (catalog # 1025-CE); member of the EGF family (protein)
chain: DGNTTRTPETNGSLCGAPGENCTGTTPRQKVKTHFSRCPKQYKHYCIHGRCRFVVDEQTPSCICEKGYFGARCERVDLFYLQQDRGQ
modifications: Mouse betacellulin peptide (asp32-gln118)
notes: mouse betacellulin (Asp32-Gln118) generated in E. coli by R&D Systems (catalog # 1025-CE); member of the EGF family
With B1 the “number of positive histological changes” value ([1]; Betacellulin dose 10 nM intravaginal, Study 1) was 3/3, the “number of positive histological changes” value ([1]; Betacellulin dose 10 nM intravaginal, Study 2) was 0/4 and the “number of positive histological changes” value ([1]; Betacellulin dose 10 nM intravaginal, Study 3) was 3/3. For the same molecule, the “number of positive histological changes” value ([1]; Betacellulin dose 100 nM intravaginal, Study 2) was 3/4, the “number of positive histological changes” value ([1]; Betacellulin dose 100 nM intravaginal, Study 3) was 2/3 and the “number of positive histological changes” value ([1]; Betacellulin dose 1 μM intravaginal, Study 2) was 2/4. The “effect on the rat vaginal epithelium, in words” value [1] was “mimics the effects of estrogen on the rat vaginal epithelium”, the “histological change of the vaginal epithelial layer compared to vehicle” value [1] was “clear thickening and differentiation of the vaginal epithelial layer” and the “histology … compared to vehicle, FIG. 1” value [3] was “positive effect”.

B2: NODDD: peptide corresponding to amino acids 343417 of HIF1α (N-terminal oxygen dependent degradation domain), FIG. 3 (peptide)
chain: SGIIQHDLIFSLQQTECVLKPVESSDMKMTQLFTKVESEDTSSLFDKLKKEPDALTLLAPAAGDTIISLDFGSND
modifications: NODDD sequence from Hif1a (amino acids 343-417)
For B2, the “upregulation of HIF-regulated transcripts” value [5] is given as “capable of upregulating HIF-regulated transcripts in vitro”.
